Measured values: patent US11744819B2, “Antibiotic cannabinoid-terpene formulations” (priority 2019, dated 2023)
Converted amounts (≈) assume the structure as drawn. “And” between values parts separate entries of the source, which are not always exact repeats. Identical values can stand only once. Like-named read-outs stand apart in the source and are kept apart here.

Columns and labels:
[1] = tested on: E. faecium VRE 55A6; assay: microbe, parasite or virus in culture; type: cell-based, Enterococcus faecium; conditions: for MIC Alone / MIC: compound alone in checkerboard; for MIC: Enterococcus faecium, VRE, read-out: MIC Alone, E. faecium VRE 55A6
Text: In therapeutic applications, synergy between active ingredients occurs when an observed combined therapeutic effect is greater than the sum of therapeutic effects of individual active ingredients, or a new therapeutic effect is produced that the active ingredients could not produce alone. […] In this context, the enhancement of therapeutic effect may take the form of increased efficacy or potency and/or decreased adverse effects. The synergistic effect may be mediated in whole or in part by the pharmacokinetics and/or pharmacodynamics of the active ingredients in a subject, so that the amount and proportion of the ingredients in the formulation may be synergistic in vivo. This in vivo synergy may be effected with a formulation that includes the active ingredients in amounts and proportions that are also synergistic in in vitro assays of efficacy. As used herein, the term “synergistically effective amounts” accordingly refers to amounts that are synergistic in vivo and/or in vitro. A numeric quantification of synergy is often expressed as a fractional inhibitory concentration index (FICI), which represents the sum of the fractional inhibitory concentrations (FICs) of each drug tested, where the FIC is determined for each drug by dividing the minimum inhibitory concentration (MIC, the lowest concentration of the drug which prevents visible growth of the bacterium in a standard in vitro assay-standard colorometric assay based on resazurin) of each drug when used in combination by the MIC of each drug when used alone. In very general terms, a FICI lower or higher than 1 indicates positively correlated activity (at least additive or potentiation) or an absence of positive interactions, respectively. More definitively, synergy of two compounds may be conservatively defined as a FICI of ::::0.5 (see Odds, 2003; with additivity or potentiation corresponding to a FICI of >0.5 to ::::0.75; no interaction (indifference) corresponding to a FICI of >1 to ::::4; and antagonism corresponding to a FICI of >>4). […] (Berenbaum, 1978; Yu et al., 1980). To estimate the optimal concentrations in triple combinations, the optimal concentrations of trans-caryophyllene and cannabinoid were utilized in combination with a series of daptomycin dilutions.
Pre-cultures of bacteria growing in their corresponding liquid media (defined below) were diluted to an 00600 of 0.0025 and 100 μl was added to 100 μl of medium containing serial 2-fold dilutions of cannabinoid (cannabinoid stocks, in methanol or acetonitrile for acidic forms, were diluted in growth medium) in 96-well plates. Plates were then incubated for 20-24 h at 37° C., and growth was recorded as 00600 in a Thermo Scientific™ Varioskan™ Flash Multimode Reader.
FICI values was determined in a 96 well checkerboard format using the MIC assay for cannabinoids (compound A), terpenes (compound B), and daptomycin (compound C) alone and in combinations. Terpene stocks were prepared in DMSO and diluted in the growth medium. The fractional inhibitory concentration for each compound was calculated as follows: FICA=(MIC of compound A in the presence of compound B)/(MIC of compound A alone). Similarly, the FICs for compounds Band C were calculated. The FICI was calculated as FICA plus FICs plus FICc.

[2] = tested on: E. faecium clinical isolate 69C6 (vancomycin resistant); conditions: for Fold reduction in daptomycin MIC in combination with the cannabinoid: E. faecium isolate 69C6
[3] = tested on: Staphylococcus epidermidis ATCC 12228; assay: MIC determination; type: cell-based; conditions: ATCC12228
[4] = tested on: biofilms of E. faecium strain 3303; assay: Biofilm treatment (crystal violet mass, viable bacteria); type: cell-based, Enterococcus faecium; conditions: 48 h biofilms of strain 3303 treated 72 h; FIG. 4
Protocol: The data in FIG. 4 was generated by growing biofilms of E. faecium strain 3303 for 48 h without cannabinoids, then treating the biofilms with cannabinoids for 72 h. The mass of the biofilm was quantitated by crystal violet staining. Viable bacteria in the biofilm were quantitated by scrapping biofilm then counting the viable bacteria. As illustrated, CBO and CBG illustrate a surprising degree of antibiotic activity against the strain 3303 of E. faecium. Of note, CBC was bactericidal against planktonic Enterococci.

[5] = tested on: enterococci; conditions: MIC 4 mg/L; 6 mg/kg doses; enterococcal bacteremia; cited from earlier work
[6] = E. faecium VRE 55A6, pairwise, with daptomycin
[7] = E. faecium VRE 55A6, pairwise, with trans-caryophyllene
[8] = E. faecium VRE 55A6, triple, with daptomycin and trans-caryophyllene
[9] = E. faecium VRE 55A6, pairwise, with CBC
[10] = E. faecium VRE 55A6, pairwise, with CBD
[11] = E. faecium VRE 55A6, pairwise, with CBG
[12] = E. faecium VRE 55A6, text b61, Table 7D
[13] = E. faecium VRE 55A6, triple, with CBC and trans-caryophyllene
[14] = E. faecium VRE 55A6, triple, with CBD and trans-caryophyllene
[15] = E. faecium VRE 55A6, triple, with CBG and trans-caryophyllene

SMILES | MIC Alone ([1]; E. faecium VRE 55A6) | MIC In combination [1, 6] | Max. fold change in MIC [1, 6] | MIC In combination [1, 7] | Max. fold change in MIC [1, 7] | MIC In combination [1, 8] | Max. fold change in MIC [1, 8] | MIC [1] | Fold reduction in daptomycin MIC in combination with the cannabinoid [2] | MIC ([3]; Staphylococcus epidermidis) | inhibition of E. faecium biofilm growth [4] | other results
CCCCCc1cc(O)c2c(c1)OC(C)(CCC=C(C)C)C=C2 (stereo not drawn) [CBC, cannabichromene] | 1 mg/L | 0.25 mg/L | 8 fold | 0.5 mg/L | 2 fold | 0.25 mg/L | 8 fold | 2 mg/L | 32 Fold | 4 mg/L (≈ 12.7 µM) | – | –
C=C(C)[C@@H]1CCC(C)=C[C@H]1c1c(O)cc(CCCCC)cc1O [CBD, cannabidiol, reference compound] | 2 mg/L | 0.5 mg/L | – | 1 mg/L | – | 0.5 mg/L | – | 4 mg/L | – | – | surprisingly effective at inhibiting E. faecium biofilm growth | MIC ([3]; Staphylococcus epidermidis ATCC 12228, read-out: MIC): 2 mg/L (≈ 6.36 µM)
CCCCCc1cc(O)c(C/C=C(\C)CCC=C(C)C)c(O)c1 [CBG, cannabigerol] | 2 mg/L | 2 mg/L | 2 fold | 2 mg/L | none | 0.5 mg/L | 4 fold | 4 mg/L | 4 Fold | 2 mg/L (≈ 6.32 µM) | surprisingly effective at inhibiting E. faecium biofilm growth | –
CCCCCCCCCC(=O)N[C@@H](Cc1c[nH]c2ccccc12)C(=O)N[C@H](CC(N)=O)C(=O)N[C@@H](CC(=O)O)C(=O)N[C@@H]1C(=O)NCC(=O)N[C@@H](CCCN)C(=O)N[C@@H](CC(=O)O)C(=O)N[C@H](C)C(=O)N[C@@H](CC(=O)O)C(=O)NCC(=O)N[C@H](CO)C(=O)N[C@@H]([C@H](C)CC(=O)O)C(=O)N[C@@H](CC(=O)c2ccccc2N)C(=O)O[C@@H]1C [Daptomycin, daptomycin, reference compound] | 16 mg/L and >16 mg/L | – | – | 8 mg/L | 2 fold | – | – | – | – | – | – | MIC In combination [1, 9]: 0.031 mg/L; Max. fold change in MIC [1, 9]: 512 fold; MIC In combination [1, 10]: 1 mg/L; Max. fold change in MIC [1, 10]: 16 fold; MIC In combination [1, 11]: 4 mg/L; Max. fold change in MIC [1, 11]: 4 fold; MIC of daptomycin (alone) [1, 12]: > 16 mg/L; MIC of daptomycin in the presence of CBC and trans caryophyllene [1, 12]: 0.03 mg/L; MIC In combination [1, 13]: 0.03 mg/L; Max. fold change in MIC [1, 13]: >512 fold; Max. fold change in MIC ([1]; E. faecium VRE 55A6, triple, with CBC and trans-caryophyllene, listed as daptomycin): > 512 fold; MIC In combination [1, 14]: 2 mg/L; Max. fold change in MIC [1, 14]: >8 fold; MIC In combination [1, 15]: 2 mg/L; Max. fold change in MIC [1, 15]: >8 fold; MIC ([2]; clinical enterococcal strain 69C6, vancomycin resistant): 1 mg/L (≈ 0.617 µM); probability of attaining target pharmacokinetic parameters [5]: 1.5-5.5%
